Laboratory results as given in PubChem BioAssay (NCI).
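Five compound concentrations were applied to cells in 96-well plates for 48 hours; endpoints were derived by simple linear interpolation of the resulting dose-response curve. At the TGI there is no net growth.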

Assays:
Assay in all cases: DTP human tumour cell line panel, 48 h
786-0 renal = tested on: 786-0 renal
A498 renal = tested on: A498 renal
A549 NSCLC = tested on: A549 NSCLC
ACHN renal = tested on: ACHN renal
CAKI-1 renal = tested on: CAKI-1 renal
CCRF-CEM leukemia = tested on: CCRF-CEM leukemia
COLO 205 colon = tested on: COLO 205 colon
DMS 114 small cell lung = tested on: DMS 114 small cell lung
DMS 273 small cell lung = tested on: DMS 273 small cell lung
EKVX NSCLC = tested on: EKVX NSCLC
HCC-2998 colon = tested on: HCC-2998 colon
HCT-116 colon = tested on: HCT-116 colon
HCT-15 colon = tested on: HCT-15 colon
HL-60(TB) leukemia = tested on: HL-60(TB) leukemia
HOP-18 NSCLC = tested on: HOP-18 NSCLC
HOP-62 NSCLC = tested on: HOP-62 NSCLC
HOP-92 NSCLC = tested on: HOP-92 NSCLC
HT29 colon = tested on: HT29 colon
IGROV1 ovarian = tested on: IGROV1 ovarian
K-562 leukemia = tested on: K-562 leukemia
KM12 colon = tested on: KM12 colon
KM20L2 colon = tested on: KM20L2 colon
LOX IMVI melanoma = tested on: LOX IMVI melanoma
LXFL 529 NSCLC = tested on: LXFL 529 NSCLC
M14 melanoma = tested on: M14 melanoma
M19-MEL melanoma = tested on: M19-MEL melanoma
MALME-3M melanoma = tested on: MALME-3M melanoma
MOLT-4 leukemia = tested on: MOLT-4 leukemia
NCI-H226 lung = tested on: NCI-H226 lung
NCI-H23 lung = tested on: NCI-H23 lung
NCI-H460 lung = tested on: NCI-H460 lung
NCI-H522 lung = tested on: NCI-H522 lung
OVCAR-3 ovarian = tested on: OVCAR-3 ovarian
OVCAR-4 ovarian = tested on: OVCAR-4 ovarian
OVCAR-5 ovarian = tested on: OVCAR-5 ovarian
OVCAR-8 ovarian = tested on: OVCAR-8 ovarian
RXF 393 renal = tested on: RXF 393 renal
SF-268 CNS = tested on: SF-268 CNS
SF-295 CNS = tested on: SF-295 CNS
SF-539 CNS = tested on: SF-539 CNS
SK-MEL-2 melanoma = tested on: SK-MEL-2 melanoma
SK-MEL-28 melanoma = tested on: SK-MEL-28 melanoma
SK-MEL-5 melanoma = tested on: SK-MEL-5 melanoma
SK-OV-3 ovarian = tested on: SK-OV-3 ovarian
SN12C renal = tested on: SN12C renal
SNB-19 CNS = tested on: SNB-19 CNS
SNB-75 CNS = tested on: SNB-75 CNS
SNB-78 CNS = tested on: SNB-78 CNS
SR leukemia = tested on: SR leukemia
SW-620 colon = tested on: SW-620 colon
TK-10 renal = tested on: TK-10 renal
U251 CNS = tested on: U251 CNS
UACC-257 melanoma = tested on: UACC-257 melanoma
UACC-62 melanoma = tested on: UACC-62 melanoma
UO-31 renal = tested on: UO-31 renal
XF 498 CNS = tested on: XF 498 CNS
DLD-1 colon = tested on: DLD-1 colon
RPMI-8226 leukemia = tested on: RPMI-8226 leukemia

NS(=O)(=O)c1ccc(Nc2c3ccccc3nc3c(C(=O)N4CCN(CCO)CC4)cccc23)cc1
TGI (786-0 renal): > 100 µM | TGI (A498 renal): > 100 µM | TGI (A549 NSCLC): > 100 µM | TGI (ACHN renal): > 100 µM | TGI (CAKI-1 renal): > 100 µM | TGI (CCRF-CEM leukemia): > 100 µM | TGI (COLO 205 colon): > 100 µM | TGI (DMS 114 small cell lung): > 100 µM | TGI (DMS 273 small cell lung): > 100 µM | TGI (EKVX NSCLC): > 100 µM | TGI (HCC-2998 colon): > 100 µM | TGI (HCT-116 colon): > 100 µM | TGI (HCT-15 colon): > 100 µM | TGI (HL-60(TB) leukemia): 65.5 µM | TGI (HOP-18 NSCLC): > 100 µM | TGI (HOP-62 NSCLC): > 100 µM | TGI (HOP-92 NSCLC): > 100 µM | TGI (HT29 colon): > 100 µM | TGI (IGROV1 ovarian): > 100 µM | TGI (K-562 leukemia): > 100 µM | TGI (KM12 colon): > 100 µM | TGI (KM20L2 colon): > 100 µM | TGI (LOX IMVI melanoma): > 100 µM | TGI (LXFL 529 NSCLC): > 100 µM | TGI (M14 melanoma): > 100 µM | TGI (M19-MEL melanoma): > 100 µM | TGI (MALME-3M melanoma): > 100 µM | TGI (MOLT-4 leukemia): > 100 µM | TGI (NCI-H226 lung): > 100 µM | TGI (NCI-H23 lung): > 100 µM | TGI (NCI-H460 lung): > 100 µM | TGI (NCI-H522 lung): > 100 µM | TGI (OVCAR-3 ovarian): > 100 µM | TGI (OVCAR-4 ovarian): > 100 µM | TGI (OVCAR-5 ovarian): > 100 µM | TGI (OVCAR-8 ovarian): > 100 µM | TGI (RXF 393 renal): > 100 µM | TGI (SF-268 CNS): > 100 µM | TGI (SF-295 CNS): > 100 µM | TGI (SF-539 CNS): > 100 µM | TGI (SK-MEL-2 melanoma): > 100 µM | TGI (SK-MEL-28 melanoma): > 100 µM | TGI (SK-MEL-5 melanoma): > 100 µM | TGI (SK-OV-3 ovarian): > 100 µM | TGI (SN12C renal): > 100 µM | TGI (SNB-19 CNS): > 100 µM | TGI (SNB-75 CNS): > 100 µM | TGI (SNB-78 CNS): > 100 µM | TGI (SR leukemia): > 100 µM | TGI (SW-620 colon): > 100 µM | TGI (TK-10 renal): > 100 µM | TGI (U251 CNS): > 100 µM | TGI (UACC-257 melanoma): > 100 µM | TGI (UACC-62 melanoma): > 100 µM | TGI (UO-31 renal): > 100 µM | TGI (XF 498 CNS): > 100 µM

COC(=O)[C@@]1(C)C(=O)CC[C@@H]1C=O
TGI (786-0 renal): > 100 µM | TGI (A498 renal): > 100 µM | TGI (A549 NSCLC): > 100 µM | TGI (ACHN renal): > 100 µM | TGI (CAKI-1 renal): > 100 µM | TGI (CCRF-CEM leukemia): > 100 µM | TGI (COLO 205 colon): > 100 µM | TGI (DLD-1 colon): > 100 µM | TGI (DMS 114 small cell lung): > 100 µM | TGI (EKVX NSCLC): > 100 µM | TGI (HCT-116 colon): > 100 µM | TGI (HCT-15 colon): > 100 µM | TGI (HL-60(TB) leukemia): > 100 µM | TGI (HOP-62 NSCLC): > 100 µM | TGI (HT29 colon): > 100 µM | TGI (IGROV1 ovarian): > 100 µM | TGI (K-562 leukemia): > 100 µM | TGI (KM12 colon): > 100 µM | TGI (KM20L2 colon): > 100 µM | TGI (LOX IMVI melanoma): > 100 µM | TGI (LXFL 529 NSCLC): > 100 µM | TGI (M14 melanoma): > 100 µM | TGI (M19-MEL melanoma): > 100 µM | TGI (MALME-3M melanoma): > 100 µM | TGI (MOLT-4 leukemia): > 100 µM | TGI (NCI-H226 lung): > 100 µM | TGI (NCI-H23 lung): > 100 µM | TGI (NCI-H460 lung): > 100 µM | TGI (NCI-H522 lung): > 100 µM | TGI (OVCAR-3 ovarian): > 100 µM | TGI (OVCAR-4 ovarian): > 100 µM | TGI (OVCAR-5 ovarian): > 100 µM | TGI (OVCAR-8 ovarian): > 100 µM | TGI (RPMI-8226 leukemia): > 100 µM | TGI (SF-268 CNS): > 100 µM | TGI (SF-295 CNS): > 100 µM | TGI (SF-539 CNS): > 100 µM | TGI (SK-MEL-2 melanoma): > 100 µM | TGI (SK-MEL-5 melanoma): > 100 µM | TGI (SK-OV-3 ovarian): > 100 µM | TGI (SN12C renal): > 100 µM | TGI (SNB-19 CNS): > 100 µM | TGI (SNB-78 CNS): > 100 µM | TGI (SR leukemia): > 100 µM | TGI (SW-620 colon): > 100 µM | TGI (TK-10 renal): > 100 µM | TGI (U251 CNS): > 100 µM | TGI (UACC-257 melanoma): > 100 µM | TGI (UACC-62 melanoma): > 100 µM | TGI (UO-31 renal): > 100 µM | TGI (XF 498 CNS): > 100 µM
